Earlier results in PubChem BioAssay AID1259409 (Chemical Carcinogenesis Research Information System (CCRIS), 2018).
Values joined by “and” are separate entries in the source; they are usually repeats but may differ in a detail not shown here. Equal values may be shown once.

Test system: rodent chemically induced tumor inhibition, incidence and multiplicity
Assay: CCRIS tumor inhibitor studies

S=C=Nc1ccccc1
tumour outcome (control, treated, inhibition, significance) (Carcinogen: 4-(METHYLNITROSAMINO)-1-(3-PYRIDYL)-1-BUTANONE, 64091-91-4, Dose [Inhibitor]: 0, 5 UMOL 1/D FOR 4 D ADMINISTERED PRIOR TO CARCINOGEN DOSE (STUDY DURATION: 116 D), Route [Inhibitor]: GAVAGE, Species: MOUSE, Strain/Sex: STRAIN-A, Target Tissue: Type of Lesion: LUNG: ADENOMA, Dose [Carcinogen]: 10 UMOL IN SALINE ADMINISTERED 2 HR POST LAST AGENT DOSE, Promoter: NONE USED): 100%, 100%, 0% | tumour outcome (control, treated, inhibition, significance) (Carcinogen: 4-(METHYLNITROSAMINO)-1-(3-PYRIDYL)-1-BUTANONE, 64091-91-4, Dose [Inhibitor]: 0, 5 UMOL 1/D FOR 4 D ADMINISTERED PRIOR TO CARCINOGEN TREATMENT (STUDY DURATION: 116 D), Route [Inhibitor]: GAVAGE, Species: MOUSE, Strain/Sex: STRAIN A, Target Tissue: Type of Lesion: LUNG: ADENOMA, Dose [Carcinogen]: 10 UMOL ONCE, 2 HR AFTER FINAL DOSE OF INHIBITOR, Promoter: NONE USED): 100%, 100%, 0%, not significant | tumour outcome (control, treated, inhibition, significance) (Carcinogen: 4-(METHYLNITROSAMINO)-1-(3-PYRIDYL)-1-BUTANONE, 64091-91-4, Dose [Inhibitor]: 0, 5 UMOL/D FOR 4 CONSECUTIVE DAYS (STUDY DURATION: 17 WK), Route [Inhibitor]: GAVAGE, Species: MOUSE, Strain/Sex: STRAIN-A/FEMALE, Target Tissue: Type of Lesion: LUNG: ADENOMA, Dose [Carcinogen]: 10 UMOL ONCE 2 HR POST LAST AGENT DOSE, Promoter: NONE USED): 100%, 100%, 0%, not significant | tumour outcome (control, treated, inhibition, significance) (Carcinogen: 4-(METHYLNITROSAMINO)-1-(3-PYRIDYL)-1-BUTANONE, 64091-91-4, Dose [Inhibitor]: 5 UMOL/D FOR 4 CONSECUTIVE DAYS (STUDY DURATION: 16 WK), Route [Inhibitor]: GAVAGE, Species: MOUSE, Strain/Sex: STRAIN-A/FEMALE, Target Tissue: Type of Lesion: LUNG: ADENOMA, Dose [Carcinogen]: 10 UMOL ONCE 2 HR POST LAST AGENT DOSE, Promoter: NONE USED): 30/30 (100%), 30/30 (100%), 0% | tumour outcome (control, treated, inhibition, significance) (Carcinogen: 4-(N-NITROSOMETHYLAMINO)-1-(3-PYRIDYL)-1-BUTANONE, 64091-91-4, Dose [Inhibitor]: 0, 5 UMOL/D FOR 4 CONSECUTIVE DAYS (STUDY DURATION: 16.5 WK), Route [Inhibitor]: GAVAGE, Species: MOUSE, Strain/Sex: STRAIN-A/FEMALE, Target Tissue: Type of Lesion: LUNG: ADENOMA, Dose [Carcinogen]: 10 UMOL ONCE 2 HR POST LAST AGENT DOSE, Promoter: NONE USED): 100%, 100%, 0%, not significant | tumour outcome (control, treated, inhibition, significance) (Carcinogen: 7,12-DIMETHYLBENZ[A]ANTHRACENE, 57-97-6, Dose [Inhibitor]: 23 MG ONCE 4 HR PRIOR TO CARCINOGEN DOSE (STUDY DURATION: 18 WK), Route [Inhibitor]: INTRAGASTRIC, Species: RAT, Strain/Sex: SPRAGUE-DAWLEY/FEMALE, Target Tissue: Type of Lesion: MAMMARY GLAND: TUMOR, Dose [Carcinogen]: 12 MG IN 1 ML OLIVE OIL AT AGE 7 WK, Promoter: NONE USED): 86%, 46%, 46%, p<0.05

O=c1ccc2cc(O)c(O)cc2o1
tumour outcome (control, treated, inhibition, significance) (Carcinogen: 7,12-DIMETHYLBENZ[A]ANTHRACENE, 57-97-6, Dose [Inhibitor]: 0, 0.03% IN HIGH-FAT (20% SOYBEAN OIL) DIET FOR 19 WK BEGINNING 1 WK POST CARCINOGEN DOSE (STUDY DURATION: 20 WK), Route [Inhibitor]: ORAL, Species: RAT, Strain/Sex: SPRAGUE-DAWLEY/FEMALE, Target Tissue: Type of Lesion: MAMMARY GLAND: TUMOR, Dose [Carcinogen]: 5 MG ONCE, Promoter: NONE USED): 13/15 (87%), 8/15 (53%), 39%, p<0.05 | tumour outcome (control, treated, inhibition, significance) (Carcinogen: 7,12-DIMETHYLBENZ[A]ANTHRACENE, 57-97-6, Dose [Inhibitor]: 0, 0.03% IN HIGH-FAT (20% SOYBEAN OIL) DIET FOR 20 WK BEGINNING 1 WK POST CARCINOGEN DOSE (STUDY DURATION: 21 WK), Route [Inhibitor]: ORAL, Species: RAT, Strain/Sex: SPRAGUE-DAWLEY/FEMALE, Target Tissue: Type of Lesion: MAMMARY GLAND: ADENOCARCINOMA, Dose [Carcinogen]: 5 MG ONCE, Promoter: NONE USED): 17/20 (85%), 10/19 (53%), 38%, p<0.05 | tumour outcome (control, treated, inhibition, significance) (Carcinogen: 7,12-DIMETHYLBENZ[A]ANTHRACENE, 57-97-6, Dose [Inhibitor]: 0, 0.03% IN LOW-FAT (0.5% SOYBEAN OIL) DIET FOR 19 WK BEGINNING 1 WK POST CARCINOGEN DOSE (STUDY DURATION: 20 WK), Route [Inhibitor]: ORAL, Species: RAT, Strain/Sex: SPRAGUE-DAWLEY/FEMALE, Target Tissue: Type of Lesion: MAMMARY GLAND: TUMOR, Dose [Carcinogen]: 5 MG ONCE, Promoter: NONE USED): 8/15 (53%), 3/15 (20%), 62%, not significant | tumour outcome (control, treated, inhibition, significance) (Carcinogen: 7,12-DIMETHYLBENZ[A]ANTHRACENE, 57-97-6, Dose [Inhibitor]: 0, 0.03% IN LOW-FAT (0.5% SOYBEAN OIL) DIET FOR 20 WK BEGINNING 1 WK POST CARCINOGEN DOSE (STUDY DURATION: 21 WK), Route [Inhibitor]: ORAL, Species: RAT, Strain/Sex: SPRAGUE-DAWLEY/FEMALE, Target Tissue: Type of Lesion: MAMMARY GLAND: ADENOCARCINOMA, Dose [Carcinogen]: 5 MG ONCE, Promoter: NONE USED): 10/18 (56%), 4/22 (18%), 68%, p<0.05 | tumour outcome (control, treated, inhibition, significance) (Carcinogen: N-METHYL-N-NITROSOUREA, 684-93-5, Dose [Inhibitor]: 0, 0.03% IN DIET FOR 24 WK BEGINNING 1 WK POST CARCINOGEN DOSE (STUDY DURATION: 25 WK), Route [Inhibitor]: ORAL, Species: RAT, Strain/Sex: SPRAGUE-DAWLEY/FEMALE, Target Tissue: Type of Lesion: MAMMARY GLAND: TUMOR, Dose [Carcinogen]: 50 MG/KG ONCE, Promoter: NONE USED): 24/30 (80%), 17/31 (55%), 31%, p<0.05

COc1cc(OC)c2ccc(=O)oc2c1
tumour outcome (control, treated, inhibition, significance) (Carcinogen: 7,12-DIMETHYLBENZ(A)ANTHRACENE, 57-97-6, Dose [Inhibitor]: 0.068 MMOL/G IN DIET FOR 8 D BEGINNING 7 D PRIOR TO CARCINOGEN DOSE (STUDY DURATION: 23 WK), Route [Inhibitor]: ORAL, Species: RAT, Strain/Sex: SPRAGUE-DAWLEY/FEMALE, Target Tissue: Type of Lesion: MAMMARY GLAND: TUMOR, Dose [Carcinogen]: 12 MG IN 1.0 ML OLIVE OIL ONCE ON D 7 OF EXPERIMENT, Promoter: NONE USED): 85%, 38%, 55%, p<0.05 | tumour outcome (control, treated, inhibition, significance) (Carcinogen: BENZO[A]PYRENE, 50-32-8, Dose [Inhibitor]: 0.034 MMOL/G IN DIET BEGINNING 1 WK PRIOR TO FIRST CARCINOGEN DOSE AND CONTINUING FOR 3 D POST LAST CARCINOGEN DOSE FOR, Route [Inhibitor]: ORAL, Species: MOUSE, Strain/Sex: ICR/FEMALE, Target Tissue: Type of Lesion: FORESTOMACH: TUMOR, Dose [Carcinogen]: 1 MG IN 0.2 ML CORN OIL 2/WK FOR 4 WK, Promoter: NONE USED): 100%, 94%, 6%, not significant

CCC(C)(C)C(=O)O[C@H]1C[C@@H](C)C=C2C=C[C@H](C)[C@H](CC[C@@H]3C[C@@H](O)CC(=O)O3)[C@H]21
tumour outcome (control, treated, inhibition, significance) (Carcinogen: 1,2-DIMETHYLHYDRAZINE, 540-73-8, Dose [Inhibitor]: 0, 0.02% IN DIET FOR 25 WK (STUDY DURATION: 25 WK), Route [Inhibitor]: ORAL, Species: MOUSE, Strain/Sex: ICR/FEMALE, Target Tissue: Type of Lesion: COLON: TUMOR, Dose [Carcinogen]: 10 MG/KG BW 1/WK FOR 15 WK, Promoter: NONE USED): 16/30 (53%), 12/30 (40%), 25%, not significant | tumour outcome (control, treated, inhibition, significance) (Carcinogen: 1,2-DIMETHYLHYDRAZINE, 540-73-8, Dose [Inhibitor]: 0, 0.1% IN DIET FOR 25 WK (STUDY DURATION: 25 WK), Route [Inhibitor]: ORAL, Species: MOUSE, Strain/Sex: ICR/FEMALE, Target Tissue: Type of Lesion: COLON: TUMOR, Dose [Carcinogen]: 10 MG/KG BW 1/WK FOR 15 WK, Promoter: NONE USED): 16/30 (53%), 11/30 (37%), 30%, not significant

CC1(C)O[C@H]2CC(=O)OC[C@]23[C@H]2CC[C@@]4(C)[C@H](c5ccoc5)OC(=O)[C@H]5O[C@]54[C@]2(C)C(=O)C[C@@H]13
tumour outcome (control, treated, inhibition, significance) (Carcinogen: AZOXYMETHANE, 25843-45-2, Dose [Inhibitor]: 0, 0.05% IN DIET FOR 35 WK BEGINNING 1 WK POST CARCINOGEN LAST DOSE (STUDY DURATION: 38 WK), Route [Inhibitor]: ORAL, Species: RAT, Strain/Sex: F344/MALE, Target Tissue: Type of Lesion: COLON: ADENOCARCINOMA, Dose [Carcinogen]: 20 MG/KG BW 1/WK FOR 2 WK): 18/25 (72%), 1/16 (6%), 92%, p=0.00003 and 18/25 (72%), 2/16 (13%), 82%, p=0.0002

CN(C(=O)c1c(O)c2ccccc2n(C)c1=O)c1ccccc1
tumour outcome (control, treated, inhibition, significance) (Carcinogen: N-METHYL-N-NITROSOUREA, 684-93-5, Dose [Inhibitor]: 0, 25 MG/KG/D IN DRINKING WATER FOR 12 MO BEGINNING 1 WK POST CARCINOGEN DOSE (STUDY DURATION: 12 MO), Route [Inhibitor]: ORAL, Species: RAT, Strain/Sex: LOBUND WISTAR/MALE, Target Tissue: Type of Lesion: SEMINAL VESICLE/PROSTATE: TUMOR, Dose [Carcinogen]: 30 MG/KG ONCE AT 90 D OF AGE, Promoter: TESTOSTERONE PROPIONATE, 57-85-2): 90%, 40%, 56%, not calculated
